The values that follow come from US6468987B1, “Nutritional product for a person having ulcerative colitis” (Abbott Laboratories, priority 1994, dated 2002).

Marks after values point to notes of the source that are not given here.

Test [1] deals with distal colitis induced by peptidoglycan/polysaccharide (PG/PS). The experiment in a line: PG/PS-induced acute and chronic distal colitis in rats. Type of test: in vivo, Female Lewis rats. The protocol: For these reasons, a model of acute and chronic distal colitis in rats was developed based upon a previously published method in which purified bacterial cell wall polymers (derived from Group A streptococci) are injected intramurally into the distal colon of genetically-susceptible rats. Sartor et al., “Granulomatus Entercolitis Induced by Purified Bacterial Cell Wall Fragments”, GASTROENTEROLOGY, Vol. 89, pages 587-595 (1985). This model produces an acute and chronic inflammation characterized by the infiltration of large numbers of inflammatory cells, enhanced mucosal permeability, interstitial fibrosis, and mucosal thickening as well as the extraintestinal manifestations of arthritis, hepatic and splenic granulomas. Unlike most models of colitis, the inflammation induced in this model promoting mucosal and submucosal injury rather than the injury causing the inflammation.
In Experiment 2 the objectives were: (a) to determine whether this model of colitis responds to sulfasalazine (SAZ) and (b) to assess the effects of specially formulated enteral diets on the injury and inflammation observed in the colon, liver and spleen.
Female Lewis rats (150-175 g) were maintained in a controlled temperature and light-dark cycle (12 hours:12 hours) and housed in wire-mesh bottomed cages and given water and standard laboratory rat chow ad libitum. A total of 48 rats were divided into 6 groups of 8 rats each consisting of a sham (rats receiving Diet #1 {base diet} with no peptidoglycan/polysaccharide {PG/PS} injection) control group, a chow group and 4 groups of rats placed on 4 different polymeric diets (Table 6). Rats received either chow or polymeric diets (320 kcals/kg/day or 60 mL of liquid diet/day) for 7 days preceding induction of colitis. Distal colitis was induced by a modification of the method of Sartor et al in which multiple sites (8-9) along the distal colon were injected intramurally with 60 ul/site to deliver a dose of peptidoglycan/polysaccharide (PG/PS) of 12.5 ug/g body weight. The albumin (sham) control group received the same number of injections of human serum albumin into the distal colon.
Total dietary intake and body weights of the control and liquid diet groups were recorded for each 24 hour period during the course of the 4 week experiment (1 week prior to the induction of colitis and 3 weeks following PG/PS or albumin injection).
To assess the effects of SAZ in this model, female Lewis rats were orally administered SAZ immediately following the induction of colitis. Rats were given chow ad libitum for the duration of the four week study period. Similar measurements were assessed as described below.
All rats receiving nutritional therapy or SAZ were euthanized with an overdose of pentobarbital and the distal colon and cecum were excised and opened longitudinally. The length and weight of the perfused segment were recorded and the tissue divided longitudinally into three strips for wet-to-dry ratios, histology and myeloperoxidase (MPO) determinations. Colonic MPO activity was determined in which 3,3′ 5,5′ tetramethylbenzidine was used as the electron donating substrate and hexadecyltrimethylammonium hydroxide was used as the detergent. Spleen and liver weights were recorded. Circulating levels of nitrate and nitrite were also quantified using the Griess reagent and used as indices of immune system activation (i.e. activation of the reticuloendothelial system {nitric oxide synthase}). The studies were analyzed as a completely randomized design. Treatment differences were separated using an F-protected least significant difference (LSD) method. In both studies additional chow fed control animals that were treated under laboratory conditions described above were incorporated in the statistical analysis.

Test [2] deals with active ulcerative colitis. The following applies: dietary supplementation; cited from earlier work.
[3] abbreviates: SAZ orally from induction of colitis, chow fed PG/PS rats, least square means.
Where [4] appears, read: oral SAZ vs PG/PS treated animals and sham control.
Setting [5] is: oral SAZ vs chow fed group receiving PG/PS.

`O=C(O)c1cc(/N=N/c2ccc(S(=O)(=O)Nc3ccccn3)cc2)ccc1O` [SAZ, sulfasalazine]: in test [1] (setting [3]), the “COLON WT” value is “.021 ± .004^a,b g dry wt/cm”, the Liver wt was 34.0 ± 3.6^b mg/g bw, the “MPO ACTIVITY” value is 1.40 ± 2.9^b units/cm colon and the Spleen wt is recorded as 2.92 ± 1.3^b mg/g bw. Besides, in test [1] (setting [4]), the “liver weight, in words” value was “significantly lower than the PG/PS treated animals and comparable to the sham control”; the “spleen weight, in words” value was “significantly lower than the PG/PS treated animals and comparable to the sham control”. In addition, in test [1] (setting [5]), the “colon weight, in words” value is recorded as “tended to reduce” and the “increases in MPO activity, in words” value is “significantly attenuated”. In test [1] (oral SAZ, PG/PS colitis), the “histological inspection of the SAZ-treated tissue” value was “inhibition of leukocyte infiltration and fibrosis”.
Turning to vitamin E, the “eicosanoid levels from rectal dialysate fluid” value in test [2] is listed as “not to promote changes”.
